{"source": "patent JP2016199536A", "about": "“筋肉増強およびメタボリックシンドローム改善ならびにqol改善のための組成物” (NUTRITION ACT CO Ltd, priority 2015, dated 2016)", "key": {"[1]": {"assay": "Body fat reduction in high-fat-diet mice, epididymal fat weight (Example 4)", "assay_type": "in vivo, mouse", "conditions": "10 weeks, C57BL/6J male mice, 6-compartment cage, high-fat diet with oleanolic acid or oleuropein 50 mg/kg diet, or Oleavita 1000 mg/kg diet"}, "[2]": {"assay": "Plasma insulin concentration in high-fat-diet mice (Example 5)", "assay_type": "in vivo, mouse", "conditions": "10 weeks, C57BL/6J male mice, 6-compartment cage, high-fat diet with oleanolic acid or oleuropein 50 mg/kg diet, or Oleavita 1000 mg/kg diet"}, "[3]": {"assay": "Plasma leptin concentration in high-fat-diet mice (Example 5)", "assay_type": "in vivo, mouse", "conditions": "10 weeks, C57BL/6J male mice, 6-compartment cage, high-fat diet with oleanolic acid or oleuropein 50 mg/kg diet, or Oleavita 1000 mg/kg diet"}, "[4]": {"system": "myoblasts (筋芽細胞)", "assay": "Myoblast differentiation promotion test, count of beating myotubes (Example 3)", "assay_type": "cell-based", "conditions": "1 μM, 10 days after cell seeding, cells from ICR mouse fetal thigh muscle"}}, "data": [{"smiles": "CC1(C)CC[C@]2(C(=O)O)CC[C@]3(C)C(=CC[C@@H]4[C@@]5(C)CC[C@H](O)C(C)(C)[C@@H]5CC[C@]43C)[C@@H]2C1", "note": "[オレアノール酸]", "values": [{"measurement": "fat-reducing effect compared with high-fat diet group (HF)", "setting": "[1]", "result": "脂肪減少効果が見られなかった"}, {"measurement": "suppression of plasma insulin concentration", "setting": "[2]", "result": "抑制効果がなかった"}, {"measurement": "plasma leptin concentration", "setting": "[3]", "result": "高値"}, {"measurement": "beating myotube cells compared with control", "setting": "[4]", "result": "わずかに増加"}]}, {"smiles": "C/C=C1/[C@H](O[C@@H]2O[C@H](CO)[C@@H](O)[C@H](O)[C@H]2O)OC=C(C(=O)OC)[C@H]1CC(=O)OCCc1ccc(O)c(O)c1", "note": "[オレウロペイン]", "values": [{"measurement": "fat-reducing effect compared with high-fat diet group (HF)", "setting": "[1]", "result": "脂肪減少効果が見られなかった"}, {"measurement": "suppression of plasma insulin concentration", "setting": "[2]", "result": "抑制効果がなかった"}, {"measurement": "plasma leptin concentration", "setting": "[3]", "result": "高値"}, {"measurement": "beating myotube cells compared with control", "setting": "[4]", "result": "わずかに増加"}]}]}
